Assay results reported in PubChem BioAssay AID248 (DTP/NCI, 2004).
Toxic doses and inconclusive results are not listed.

Test system: L1210 leukemia ip in BDF1 mice, survival T/C
Assay: NCI In Vivo Anticancer Drug Screen. Data for tumor model L1210 Leukemia (intraperitoneal) in B6D2F1 (BDF1) mice
Settings: endpoint: mean survival time, higher = longer survival
Method in brief: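 Survival endpoint. Drug-treated group vs vehicle group, expressed as T divided by C. Tumor passaged by transplantation.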

[1] = dose: 100.0 mg/kg/injection, schedule: Q04DX003 (ip), vehicle: saline
[2] = dose: 200.0 mg/kg/injection, schedule: Q04DX003 (ip), vehicle: saline
[3] = dose: 400.0 mg/kg/injection, schedule: Q04DX003 (ip), vehicle: saline
[4] = dose: 100.0 mg/kg/injection, schedule: Q04DX002 (ip), vehicle: Klucel (hydroxypropylcellulose) (HPC)
[5] = dose: 200.0 mg/kg/injection, schedule: Q04DX002 (ip), vehicle: Klucel (hydroxypropylcellulose) (HPC)
[6] = dose: 400.0 mg/kg/injection, schedule: Q04DX002 (ip), vehicle: Klucel (hydroxypropylcellulose) (HPC)
[7] = dose: 100.0 mg/kg/injection, schedule: Q01DX009 (ip), vehicle: Klucel (hydroxypropylcellulose) (HPC)
[8] = dose: 200.0 mg/kg/injection, schedule: Q01DX009 (ip), vehicle: Klucel (hydroxypropylcellulose) (HPC)
[9] = dose: 400.0 mg/kg/injection, schedule: Q01DX009 (ip), vehicle: Klucel (hydroxypropylcellulose) (HPC)

OCC(O)C(O)C(O)/C=N\O (configuration not stated)
T/C [1]: 107 % of control
T/C [2]: 107 % of control
T/C [3]: 100 % of control

Cc1ccc(B(O)O)cc1
T/C (dose: 50.0 mg/kg/injection, schedule: Q04DX002 (ip), vehicle: alcohol): 107 % of control
T/C (dose: 100.0 mg/kg/injection, schedule: Q04DX002 (ip), vehicle: alcohol): 101 % of control
T/C (dose: 200.0 mg/kg/injection, schedule: Q04DX002 (ip), vehicle: alcohol): 101 % of control

CCOC(=O)c1cccc2c([N+](=O)[O-])cccc12
T/C (dose: 100.0 mg/kg/injection, schedule: Q01DX001 (ip), vehicle: saline): 94 % of control
T/C (dose: 100.0 mg/kg/injection, schedule: Q01DX009 (ip), vehicle: acetone): 96 % of control
T/C (dose: 200.0 mg/kg/injection, schedule: Q01DX001 (ip), vehicle: saline): 98 % of control
T/C (dose: 200.0 mg/kg/injection, schedule: Q01DX009 (ip), vehicle: acetone): 88 % of control
T/C (dose: 400.0 mg/kg/injection, schedule: Q01DX001 (ip), vehicle: saline): 98 % of control
T/C (dose: 400.0 mg/kg/injection, schedule: Q01DX009 (ip), vehicle: acetone): 97 % of control

CCCCOC(=O)c1ccc(NC(=O)Nc2cc([N+](=O)[O-])ccc2F)cc1
T/C [4]: 93 % of control
T/C [5]: 104 % of control
T/C [6]: 93 % of control

O=[N+]([O-])c1cccc(C=Nc2cccc(Cl)c2)c1
T/C [4]: 96 % of control
T/C [5]: 100 % of control
T/C [6]: 100 % of control

CC(CS(=O)(=O)O)NC(CO)(CO)CO (configuration not stated)
T/C (dose: 100.0 mg/kg/injection, schedule: Q01DX009 (ip), vehicle: saline): 104 % of control
T/C [1]: 100 % of control
T/C (dose: 200.0 mg/kg/injection, schedule: Q01DX009 (ip), vehicle: saline): 98 % of control
T/C [2]: 100 % of control
T/C (dose: 400.0 mg/kg/injection, schedule: Q01DX009 (ip), vehicle: saline): 96 % of control
T/C [3]: 100 % of control

Cc1cccc[n+]1Cc1ccccc1
T/C (dose: 9.38 mg/kg/injection, schedule: Q01DX001 (ip), vehicle: saline): 100 % of control
T/C (dose: 18.75 mg/kg/injection, schedule: Q01DX001 (ip), vehicle: saline): 97 % of control
T/C (dose: 37.5 mg/kg/injection, schedule: Q01DX001 (ip), vehicle: saline): 101 % of control

CCCCNC(=O)N(CC)C(=NCC)c1ccc(NC(=O)c2ccc(C(=O)Nc3ccc(C(=NCC)N(CC)C(=O)NCCCC)cc3)cc2)cc1
T/C (dose: 3.12 mg/kg/injection, schedule: Q01DX015 (ip), vehicle: methylcellulose (MC)): 109 % of control
T/C (dose: 6.25 mg/kg/injection, schedule: Q01DX015 (ip), vehicle: methylcellulose (MC)): 121 % of control
T/C (dose: 12.5 mg/kg/injection, schedule: Q01DX015 (ip), vehicle: methylcellulose (MC)): 178 % of control
T/C (dose: 25.0 mg/kg/injection, schedule: Q01DX015 (ip), vehicle: methylcellulose (MC)): 120 % of control

CCc1cc(/C=C2\C(=O)C=Cc3ccccc32)c(O)s1
T/C (dose: 100.0 mg/kg/injection, schedule: Q04DX002 (ip), vehicle: saline with Tween-80): 89 % of control
T/C (dose: 400.0 mg/kg/injection, schedule: Q04DX002 (ip), vehicle: saline with Tween-80): 89 % of control

CCCCNC(=O)Nc1cccc2ccccc12
T/C [7]: 96 % of control
T/C [8]: 96 % of control
T/C [9]: 97 % of control

CCCCCCc1cc(N=Nc2ccc(S(=O)(=O)Nc3nccs3)cc2)c(O)cc1O
T/C (dose: 100.0 mg/kg/injection, schedule: Q01DX001 (ip), vehicle: carboxymethylcellulose (CMC)): 95 % of control
T/C (dose: 200.0 mg/kg/injection, schedule: Q01DX001 (ip), vehicle: carboxymethylcellulose (CMC)): 98 % of control
T/C (dose: 400.0 mg/kg/injection, schedule: Q01DX001 (ip), vehicle: carboxymethylcellulose (CMC)): 95 % of control

Cc1ccc([N+](=O)[O-])cc1NC(=O)Nc1cc(Cl)ccc1O
T/C [7]: 93 % of control
T/C [8]: 96 % of control
T/C [9]: 95 % of control

O=Nn1c2ccccc2c2ccccc21
T/C (dose: 100.0 mg/kg/injection, schedule: Q04DX003 (ip), vehicle: gum acacia): 92 % of control
T/C (dose: 200.0 mg/kg/injection, schedule: Q04DX003 (ip), vehicle: gum acacia): 95 % of control
T/C (dose: 400.0 mg/kg/injection, schedule: Q04DX003 (ip), vehicle: gum acacia): 87 % of control

Cc1ncc(C#N)n1C(C)c1ccccc1 (configuration not stated)
T/C (dose: 100.0 mg/kg/injection, schedule: Q01DX001 (ip), vehicle: Klucel (hydroxypropylcellulose) (HPC)): 103 % of control
T/C (dose: 200.0 mg/kg/injection, schedule: Q01DX001 (ip), vehicle: Klucel (hydroxypropylcellulose) (HPC)): 100 % of control
